# From paper PMC7717492 (Science translational medicine, 2019)
# Entries after “also recorded” stand apart in the source; their conditions may differ.
# How the values were obtained:
# [1] = tested on: MPS1 mutant cells; assay type: cell-based; conditions: CRISPR-mediated HDR knock-in
# [2] = tested on: MELK-knockout (KO) cancer cells; conditions: cited from earlier work
# [3] = tested on: A375 cells expressing H2B-mCherry; assay: Mitotic progression after release from double-thymidine block into OTS964; assay type: cell-based, human
# [4] = tested on: CDK11B G579S / G579A cancer cells; assay: Viability of CDK11B xDFG mutant cancer cells in OTS964; assay type: cell-based, human
# [5] = target: CDK11B (Homo sapiens, UniProt P21127); assay: Binding of OTS964 to different CDKs
# Chain of CDK11B (P21127 whole entry): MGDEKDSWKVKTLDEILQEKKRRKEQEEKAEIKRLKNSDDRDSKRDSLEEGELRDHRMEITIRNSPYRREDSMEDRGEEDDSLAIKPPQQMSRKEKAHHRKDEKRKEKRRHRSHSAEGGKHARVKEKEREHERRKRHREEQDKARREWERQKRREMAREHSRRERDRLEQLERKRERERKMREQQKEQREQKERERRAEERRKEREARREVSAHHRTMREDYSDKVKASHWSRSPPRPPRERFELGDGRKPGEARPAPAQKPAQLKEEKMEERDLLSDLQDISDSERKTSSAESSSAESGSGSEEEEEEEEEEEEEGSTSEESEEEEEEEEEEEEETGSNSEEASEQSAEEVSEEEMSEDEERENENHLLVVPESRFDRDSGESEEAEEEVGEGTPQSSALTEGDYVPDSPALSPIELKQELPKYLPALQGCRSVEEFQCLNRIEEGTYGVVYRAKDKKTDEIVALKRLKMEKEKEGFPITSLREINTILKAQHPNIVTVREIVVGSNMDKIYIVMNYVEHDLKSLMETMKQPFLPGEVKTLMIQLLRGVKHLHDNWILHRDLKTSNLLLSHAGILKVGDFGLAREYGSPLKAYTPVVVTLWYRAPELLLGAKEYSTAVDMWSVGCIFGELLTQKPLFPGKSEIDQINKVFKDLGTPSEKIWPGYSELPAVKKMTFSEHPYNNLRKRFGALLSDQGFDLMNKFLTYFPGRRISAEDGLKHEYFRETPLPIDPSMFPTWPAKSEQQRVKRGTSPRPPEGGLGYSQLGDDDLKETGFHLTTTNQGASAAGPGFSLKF
# [6] = tested on: multiple cancer types; assay: OTS964 potency in cancer cell lines
# [7] = tested on: MCF7 cells; conditions: caspase 3-deficient breast cancer cell line; cited from earlier work
# [8] = tested on: CASP3-KO lines; assay: Dose-response of Rosa26 and CASP3-KO cells with putative caspase-3 activators; assay type: cell-based, human; conditions: four different cell lines incl. A375 and HCT116
# [9] = tested on: Rosa26 and PAK4-KO melanoma cells; assay: 7-point dose-response of Rosa26 and PAK4-KO cells with PF-3758309; assay type: cell-based; conditions: Homo sapiens, A-375
# [10] = tested on: MAPK14/p38α knockout clones; assay: Sensitivity of MAPK14/p38α knockout clones to chemotherapy agents; assay type: cell-based, human; conditions: multiple cell lines
# [11] = tested on: TOV-21G HDAC6-KO cells; assay: Drug sensitivity of HDAC6-KO ovarian cancer cells; assay type: cell-based, human; conditions: ARID1A-mutant ovarian cancer cell line
# [12] = tested on: p53 knockout cells; assay: Nutlin-3a sensitivity after p53 knockout; assay type: cell-based
# [13] = tested on: OTS964-resistant HCT116 clones; assay: Paclitaxel sensitivity of OTS964-resistant clones; conditions: HCT116 clones resistant to OTS964
# [14] = tested on: HDAC6 knockout clones; assay: Sensitivity of HDAC6 knockout clones to chemotherapy agents; assay type: cell-based, human; conditions: HDAC6 knockout versus control clones
# [15] = tested on: FKBP12 KO clones; assay: Rapamycin sensitivity of FKBP12 knockout clones; assay type: cell-based
# [16] = tested on: HDAC6-KO HAP1 cells; conditions: cited from earlier work
structure (smiles),measurement,setting,value
COc1cc(OC2CCN(C)CC2)ccc1Nc1ncc2c(n1)n(C1CCCC1)c(=O)n2C [AZ3146],effect of MPS1 kinase domain missense mutation on drug sensitivity,[1],capable of granting resistance
CC(=O)c1cnc2ccc(-c3cc(Cl)c(O)c(Cl)c3)nc2c1N[C@H]1CC[C@H](CN(C)C)CC1 [OTS167],killing of MELK-KO cancer cells,[2],no decrease in potency
Cc1cc(O)c(-c2ccc(C(C)CN(C)C)cc2)c2c1[nH]c(=O)c1sccc12 (stereo not drawn) [OTS964],effect of G579S substitution on mitotic entry and progression in drug,"[3]; A375 cells with CDK11B G579S, lethal concentration of OTS964",rescued normal mitotic entry and progression
same,effect on DNA replication,"[3]; arrested cells: 4C DNA content, no 53BP1-foci",did not perturb DNA replication
same,effect on cell cycle,"[3]; lethal concentration of OTS964, release from double-thymidine block",arrested in G2
same,effect on mitotic progression,"[3]; low concentration of OTS964, release from double-thymidine block",delayed nuclear envelope breakdown and progressed slowly through mitosis
same,effect of CDK11B xDFG Gly→Ser (G579S) mutation on viability in drug,"[4]; A375, A2780, DLD1 and MDA-MB-231 cells, lethal concentration of OTS964",sufficient to restore viability
same,effect of alanine substitution at CDK11B residue 579 on drug efficacy,[4]; CDK11B residue 579 alanine substitution,sufficient to decrease the efficacy
same,Kd,[5],40 nM
same,potency,[6],nanomolar potency
C=CCc1cccc(/C=N/NC(=O)CN2CCN(Cc3ccccc3)CC2)c1O [PAC-1],IC50 value in MCF7 cells compared to caspase 3-expressing cell lines,[7],higher
same,sensitivity of CASP3-KO lines compared to Rosa26 controls,[8],identical sensitivity
Cc1nc(Nc2[nH]nc3c2CN(C(=O)N[C@H](CN(C)C)c2ccccc2)C3(C)C)c2sccc2n1 [PF-3758309],GI50,[9],~9 nM
CC(C)C[C@H](NC(=O)[C@H](Cc1ccccc1)NC(=O)c1cnccn1)B(O)O [bortezomib],sensitivity of MAPK14/p38α knockout clones versus Rosa26 control clones,[10],as sensitive
N.N.O=C([O-])C1(C(=O)[O-])CCC1.[Pt+2] [carboplatin],sensitivity of MAPK14/p38α knockout clones versus Rosa26 control clones,[10],as sensitive
O=C(CCCCCCNC(=O)c1cnc(N(c2ccccc2)c2ccccc2Cl)nc1)NO [citarinostat],sensitivity of TOV-21G HDAC6-KO cells,[11],remained sensitive
Nc1ccn([C@@H]2O[C@H](CO)[C@@H](O)C2(F)F)c(=O)n1 [gemcitabine],sensitivity of MAPK14/p38α knockout clones versus Rosa26 control clones,[10],as sensitive
COc1ccc(C2=N[C@@H](c3ccc(Cl)cc3)[C@@H](c3ccc(Cl)cc3)N2C(=O)N2CCNC(=O)C2)c(OC(C)C)c1 [nutlin-3a],effect of p53 knockout on drug sensitivity,[12],conferred resistance
CC(=O)O[C@H]1C(=O)[C@@]2(C)[C@H]([C@H](OC(=O)c3ccccc3)[C@]3(O)C[C@H](OC(=O)[C@H](O)[C@@H](NC(=O)c4ccccc4)c4ccccc4)C(C)=C1C3(C)C)[C@]1(OC(C)=O)CO[C@@H]1C[C@@H]2O [paclitaxel],sensitivity of OTS964-resistant clones,[13],remained sensitive
same,effect of loss of HDAC6 on drug sensitivity,[14],failed to sensitize
CO[C@H]1C[C@@H]2CC[C@@H](C)[C@@](O)(O2)C(=O)C(=O)N2CCCC[C@H]2C(=O)O[C@H]([C@H](C)C[C@@H]2CC[C@@H](O)[C@H](OC)C2)CC(=O)[C@H](C)/C=C(\C)[C@@H](O)[C@@H](OC)C(=O)[C@H](C)C[C@H](C)/C=C/C=C/C=C/1C [rapamycin],effect of FKBP12 knockout on drug sensitivity,[15],increased resistance
O=C(CCCCCCNC(=O)c1cnc(N(c2ccccc2)c2ccccc2)nc1)NO [ricolinostat],sensitivity of TOV-21G HDAC6-KO cells,[11],remained sensitive
same,killing of HDAC6-KO HAP1 cells,[16],continued to kill; also recorded: kills
Cn1nnc2c(C(N)=O)ncn2c1=O [temozolomide],sensitivity of MAPK14/p38α knockout clones versus Rosa26 control clones,[10],as sensitive
